Source: ChEMBL document CHEMBL4052649, “Structure-activity relationships for flavone interactions with amyloid β reveal a novel anti-aggregatory and neuroprotective effect of 2',3',4'-trihydroxyflavone (2-D08)” (Bioorg Med Chem, 2017)
The source made the active and inactive calls. No cut-off for these calls is given here.

How the values were obtained:
[1] = biological target: Amyloid-beta precursor protein (Homo sapiens) (UniProt P05067); experiment: Inhibition of human amyloid beta (1 to 42) assessed as neuroprotective activity at 2 uM of amyloid beta (1 to 42)-induced toxicity in rat PC12 cells by measuring reduction in cell viability incubated 15 mins prior to amyloid beta (1 to 42) addition measured after 48 hrs by MTT assay; assay type: cell-based
Amyloid-beta precursor protein (Homo sapiens), sequence (P05067 whole entry): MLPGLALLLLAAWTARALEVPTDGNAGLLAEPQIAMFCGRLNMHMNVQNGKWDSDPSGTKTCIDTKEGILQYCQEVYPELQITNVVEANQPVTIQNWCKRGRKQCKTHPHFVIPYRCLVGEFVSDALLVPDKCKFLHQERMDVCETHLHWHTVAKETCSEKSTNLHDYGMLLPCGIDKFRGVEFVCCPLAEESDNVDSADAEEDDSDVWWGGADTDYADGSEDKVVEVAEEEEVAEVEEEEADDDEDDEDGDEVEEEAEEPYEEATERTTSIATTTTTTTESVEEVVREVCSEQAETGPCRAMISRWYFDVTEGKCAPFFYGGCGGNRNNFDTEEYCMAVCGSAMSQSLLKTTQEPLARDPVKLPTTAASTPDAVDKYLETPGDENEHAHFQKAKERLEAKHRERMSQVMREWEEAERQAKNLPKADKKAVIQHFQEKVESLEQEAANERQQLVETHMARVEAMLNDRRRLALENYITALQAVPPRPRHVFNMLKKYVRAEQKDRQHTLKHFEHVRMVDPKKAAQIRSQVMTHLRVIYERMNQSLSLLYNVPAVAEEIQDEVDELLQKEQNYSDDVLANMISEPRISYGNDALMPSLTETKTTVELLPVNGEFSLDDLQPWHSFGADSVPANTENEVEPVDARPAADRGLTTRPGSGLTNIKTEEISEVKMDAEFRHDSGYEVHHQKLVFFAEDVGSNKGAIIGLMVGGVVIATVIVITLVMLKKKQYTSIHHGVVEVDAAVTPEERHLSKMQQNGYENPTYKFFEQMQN

[2] = biological target: Amyloid-beta precursor protein (Homo sapiens) (UniProt P05067); experiment: Inhibition of human amyloid beta (1 to 42) assessed as neuroprotective activity up to 2 uM of amyloid beta (1 to 42)-induced toxicity in rat PC12 cells by measuring reduction in cell viability at 100 uM incubated 15 mins prior to amyloid beta (1 to 42) addition measured after 48 hrs by MTT assay; assay type: cell-based
[3] = biological target: Amyloid-beta precursor protein (Homo sapiens) (UniProt P05067); experiment: Inhibition of human amyloid beta (1 to 42) assessed as reduction in fibrillisation AUC in cell-free solution at 100 uM measured every 10 mins for 48 hrs by Thioflavin T based fluorescence assay
[4] = biological target: Amyloid-beta precursor protein (Homo sapiens) (UniProt P05067); experiment: Inhibition of human amyloid beta (1 to 42) fibrillisation in cell-free solution at 100 uM measured every 10 mins up to 48 hrs by Thioflavin T based fluorescence assay
[5] = biological target: Amyloid-beta precursor protein (Homo sapiens) (UniProt P05067); experiment: Inhibition of human amyloid beta (1 to 42) aggregation at 100 uM after 48 hrs by transmission electron microscopic analysis
[6] = biological target: Amyloid-beta precursor protein (Homo sapiens) (UniProt P05067); experiment: Inhibition of human amyloid beta (1 to 42) aggregation assessed as reduction in fibril formation at 100 uM after 48 hrs by transmission electron microscopic analysis
[7] = biological target: Amyloid-beta precursor protein (Homo sapiens) (UniProt P05067); experiment: Inhibition of human amyloid beta (1 to 42) aggregation assessed as loosely attached/thin fibrils at 100 uM after 48 hrs by transmission electron microscopic analysis
PC-12 [8] = experiment: Cytotoxicity against rat PC12 cells assessed as reduction in cell viability at 100 uM after 48 hrs in presence of up to 2 uM amyloid beta (1 to 42) by MTT assay; assay type: cell-based; details: pc-12, 48 h
[9] = biological target: Amyloid-beta precursor protein (Homo sapiens) (UniProt P05067); experiment: Inhibition of human amyloid beta (1 to 42) assessed as neuroprotective activity against amyloid beta (1 to 42)-induced toxicity in rat PC12 cells by measuring reduction in cell viability at 10 uM incubated 15 mins prior to amyloid beta (1 to 42) addition measured after 48 hrs by MTT assay; assay type: cell-based
[10] = biological target: Amyloid-beta precursor protein (Homo sapiens) (UniProt P05067); experiment: Inhibition of human amyloid beta (1 to 42) assessed as neuroprotective activity against amyloid beta (1 to 42)-induced toxicity in rat PC12 cells by measuring reduction in cell viability at 50 to 100 uM incubated 15 mins prior to amyloid beta (1 to 42) addition measured after 48 hrs by MTT assay; assay type: cell-based
PC-12 [11] = experiment: Cytotoxicity against rat PC12 cells assessed as reduction in cell viability at 100 uM after 48 hrs by MTT assay; assay type: cell-based; details: pc-12, 48 h
[12] = biological target: Amyloid-beta precursor protein (Homo sapiens) (UniProt P05067); experiment: Inhibition of human amyloid beta (1 to 42) assessed as neuroprotective activity up to 1 uM of amyloid beta (1 to 42)-induced toxicity in rat PC12 cells by measuring reduction in cell viability at 100 uM incubated 15 mins prior to amyloid beta (1 to 42) addition measured after 48 hrs by MTT assay; assay type: cell-based
PC-12 [13] = experiment: Cytotoxicity against rat PC12 cells assessed as reduction in cell viability at 100 uM after 48 hrs in presence of 0.1 uM amyloid beta (1 to 42) by MTT assay; assay type: cell-based; details: pc-12, 48 h
[14] = biological target: Amyloid-beta precursor protein (Homo sapiens) (UniProt P05067); experiment: Inhibition of human amyloid beta (1 to 42) aggregation assessed as increase in preponderance of fibril meshwork formation at 100 uM after 48 hrs by transmission electron microscopic analysis
[15] = biological target: Amyloid-beta precursor protein (Homo sapiens) (UniProt P05067); experiment: Inhibition of human amyloid beta (1 to 42) fibrillisation in cell-free solution at 100 uM measured up to 16 hrs by Thioflavin T based fluorescence assay
[16] = biological target: Amyloid-beta precursor protein (Homo sapiens) (UniProt P05067); experiment: Inhibition of human amyloid beta (1 to 42) assessed as neuroprotective activity at 2 uM of amyloid beta (1 to 42)-induced toxicity in rat PC12 cells by measuring reduction in cell viability at 10 to 50 uM incubated 15 mins prior to amyloid beta (1 to 42) addition measured after 48 hrs by MTT assay; assay type: cell-based
[17] = biological target: Amyloid-beta precursor protein (Homo sapiens) (UniProt P05067); experiment: Inhibition of human amyloid beta (1 to 42) assessed as neuroprotective activity at 2 uM of amyloid beta (1 to 42)-induced toxicity in rat PC12 cells by measuring reduction in cell viability at 100 uM incubated 15 mins prior to amyloid beta (1 to 42) addition measured after 48 hrs by MTT assay; assay type: cell-based

Row | Structure (SMILES) | inhibition [1] | inhibition [2] | inhibition [3] | inhibition [4] | inhibition [5] | inhibition [6] | inhibition [7] | Activity (PC-12 [8]) | inhibition [9] | inhibition [10] | Activity (PC-12 [11]) [%] | inhibition [12] | Activity (PC-12 [13]) | inhibition [14] | inhibition [15] | inhibition [16] | inhibition [17]
1 | O=c1cc(-c2ccc(O)c(O)c2O)oc2ccccc12 | Dose-dependent effect | Active | Active | Active | Active | Active | – | – | – | – | – | – | – | – | – | – | –
2 | O=c1c(O)c(-c2ccc(O)c(O)c2)oc2cc(O)cc(O)c12 [QUERCETIN] | – | inactive | Active | Active | – | – | Active | Non-Toxic | Active | inactive | 25 | – | – | – | – | – | –
3 | COc1ccc(-c2cc(=O)c3c(OC)c(OC)c(OC)c(OC)c3o2)cc1OC [NOBILETIN] | – | – | inactive | – | – | – | – | – | – | – | – | inactive | Toxic | inactive | inactive | – | –
4 | COc1cc(-c2cc(=O)c3c(O)c(OC)c(O)cc3o2)ccc1O [JACEOSIDINE] | – | – | inactive | – | Active | – | – | – | – | – | – | inactive | Toxic | – | Active | – | –
5 | COc1c(-c2ccc(O)c(O)c2)oc2c(O)c(O)ccc2c1=O | – | Active | Active | Active | – | – | Active | – | – | – | – | – | – | – | – | Active | inactive
